In patent US11365188B2, “JAK inhibitors” (priority 2018, dated 2022):

Tests used:
Format in all cases: biochemical
[1] = target: T1, JAK3 (Homo sapiens, UniProt P52333); test: JAK3 Assay (Caliper EZ Reader, fluoresceinated peptide); details: ATP 3.5 μM; JAK3 0.5 nM; 30 minutes at room temperature; read-out: JAK3 inhibition
T1 sequence (P52333 1-1124): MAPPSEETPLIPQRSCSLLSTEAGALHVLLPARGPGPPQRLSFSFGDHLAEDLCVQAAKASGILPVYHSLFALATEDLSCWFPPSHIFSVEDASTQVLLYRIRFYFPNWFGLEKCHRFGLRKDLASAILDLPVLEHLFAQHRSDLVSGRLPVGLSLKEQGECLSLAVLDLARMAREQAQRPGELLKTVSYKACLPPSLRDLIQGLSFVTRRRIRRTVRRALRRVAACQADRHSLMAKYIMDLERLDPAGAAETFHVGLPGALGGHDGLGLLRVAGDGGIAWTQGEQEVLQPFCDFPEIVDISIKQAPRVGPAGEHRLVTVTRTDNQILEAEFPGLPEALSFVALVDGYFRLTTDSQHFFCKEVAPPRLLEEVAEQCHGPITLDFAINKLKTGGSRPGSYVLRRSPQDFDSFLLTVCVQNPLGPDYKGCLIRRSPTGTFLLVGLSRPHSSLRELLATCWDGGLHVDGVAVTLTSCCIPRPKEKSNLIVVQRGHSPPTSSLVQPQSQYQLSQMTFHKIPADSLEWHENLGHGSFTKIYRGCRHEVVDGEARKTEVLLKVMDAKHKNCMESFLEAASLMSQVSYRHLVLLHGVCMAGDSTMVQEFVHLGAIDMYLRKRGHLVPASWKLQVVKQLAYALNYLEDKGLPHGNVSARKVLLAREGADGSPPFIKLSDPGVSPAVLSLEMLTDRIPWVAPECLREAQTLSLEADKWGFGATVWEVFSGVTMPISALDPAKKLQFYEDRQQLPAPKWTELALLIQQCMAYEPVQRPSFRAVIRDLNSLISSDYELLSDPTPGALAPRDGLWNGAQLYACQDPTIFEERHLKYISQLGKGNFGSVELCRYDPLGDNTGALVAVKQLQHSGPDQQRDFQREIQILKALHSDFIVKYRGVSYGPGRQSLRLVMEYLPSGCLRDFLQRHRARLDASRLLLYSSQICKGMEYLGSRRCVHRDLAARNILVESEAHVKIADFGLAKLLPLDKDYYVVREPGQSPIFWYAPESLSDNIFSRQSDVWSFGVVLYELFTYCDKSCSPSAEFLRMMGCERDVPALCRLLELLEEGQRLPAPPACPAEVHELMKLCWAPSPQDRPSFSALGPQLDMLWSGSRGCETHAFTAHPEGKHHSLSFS
Procedure: JAK3 Assay 384-well plates in the left foot butoxy measured progress. The final assay volume was 25 μL, 250 nL 100× compounds, 10 μL enzyme mix and 15 μL substrate mix (fluoresceinated peptide and ATP) in assay buffer (50 mM HEPES (pH 7.5), 10 mM MgCl2, 0.01% TritonX-100, 0.01% Brij35, 0.5 mM EGTA and 2 mM DTT) prepared as test compound. By mixing the JAK3 with substrates and test compounds to start the reaction. The reaction mixture was incubated for 30 minutes at room temperature, then added 30 μL stop buffer for each sample to terminate the reaction with 50 mM EDTA. After termination of the kinase reaction, the proportion of phosphorylated product was determined as a fraction of total peptide substrate using Caliper EZ Reader II. Inhibition data were calculated by comparison with 100% of the reaction mixture without enzyme inhibition and vehicle-only reaction mixture billion % inhibition compared. The final concentration of reagents in the assays is: ATP, 3.5 μM; JAK3 fluorescent peptide (5-FAM-EEPLYWSFPAKKK-CONH2), 3 μM; JAK3, 0.5 nM; and DMSO, 1%. Dose response curve were generated to determine the concentration required for IC50 of JAK3 activity.

[2] = target: JAK1 (Homo sapiens, UniProt P23458); test: JAK Kinase Assay (JAK1, Caliper EZ Reader, fluoresceinated peptide); details: ATP 76.5 μM; JAK1 10 nM; 120 minutes at room temperature; read-out: JAK1 inhibition
Sequence of JAK1 (P23458 whole entry, species assumed): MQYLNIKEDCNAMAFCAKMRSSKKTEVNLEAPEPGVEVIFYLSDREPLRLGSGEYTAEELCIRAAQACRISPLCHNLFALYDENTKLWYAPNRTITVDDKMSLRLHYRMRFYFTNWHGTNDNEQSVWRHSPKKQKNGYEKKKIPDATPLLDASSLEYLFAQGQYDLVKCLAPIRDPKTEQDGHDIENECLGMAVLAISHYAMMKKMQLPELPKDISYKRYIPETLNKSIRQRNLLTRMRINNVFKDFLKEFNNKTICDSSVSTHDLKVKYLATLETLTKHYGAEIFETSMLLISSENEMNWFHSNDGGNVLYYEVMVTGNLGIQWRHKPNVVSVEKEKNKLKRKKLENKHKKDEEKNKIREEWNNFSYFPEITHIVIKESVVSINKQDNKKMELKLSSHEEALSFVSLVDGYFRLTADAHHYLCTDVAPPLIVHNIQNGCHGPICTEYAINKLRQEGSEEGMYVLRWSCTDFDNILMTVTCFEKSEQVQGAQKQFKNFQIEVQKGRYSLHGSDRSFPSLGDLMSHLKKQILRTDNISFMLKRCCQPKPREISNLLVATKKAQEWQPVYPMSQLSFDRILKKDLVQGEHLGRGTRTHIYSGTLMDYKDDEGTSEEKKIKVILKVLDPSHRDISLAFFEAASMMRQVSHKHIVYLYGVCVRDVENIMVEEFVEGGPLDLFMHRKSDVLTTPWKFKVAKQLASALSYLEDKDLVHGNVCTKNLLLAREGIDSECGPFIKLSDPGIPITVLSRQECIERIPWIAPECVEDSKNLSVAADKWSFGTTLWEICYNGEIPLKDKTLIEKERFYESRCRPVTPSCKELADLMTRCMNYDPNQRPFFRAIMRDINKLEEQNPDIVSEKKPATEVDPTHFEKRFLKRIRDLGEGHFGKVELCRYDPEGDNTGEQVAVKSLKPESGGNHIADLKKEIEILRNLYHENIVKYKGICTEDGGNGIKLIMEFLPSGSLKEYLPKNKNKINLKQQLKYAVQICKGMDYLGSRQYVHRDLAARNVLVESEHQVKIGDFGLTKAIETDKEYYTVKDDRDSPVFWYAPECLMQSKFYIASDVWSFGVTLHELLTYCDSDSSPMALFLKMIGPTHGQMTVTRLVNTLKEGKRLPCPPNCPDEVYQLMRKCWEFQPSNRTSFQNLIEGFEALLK

[3] = target: JAK2 (Homo sapiens, UniProt O60674); test: JAK2 Assay (Caliper EZ Reader, fluoresceinated peptide); details: ATP 11.4 μM; JAK2 0.25 nM; 15 minutes at room temperature; read-out: JAK2 inhibition
Sequence of JAK2 (O60674 whole entry, species assumed): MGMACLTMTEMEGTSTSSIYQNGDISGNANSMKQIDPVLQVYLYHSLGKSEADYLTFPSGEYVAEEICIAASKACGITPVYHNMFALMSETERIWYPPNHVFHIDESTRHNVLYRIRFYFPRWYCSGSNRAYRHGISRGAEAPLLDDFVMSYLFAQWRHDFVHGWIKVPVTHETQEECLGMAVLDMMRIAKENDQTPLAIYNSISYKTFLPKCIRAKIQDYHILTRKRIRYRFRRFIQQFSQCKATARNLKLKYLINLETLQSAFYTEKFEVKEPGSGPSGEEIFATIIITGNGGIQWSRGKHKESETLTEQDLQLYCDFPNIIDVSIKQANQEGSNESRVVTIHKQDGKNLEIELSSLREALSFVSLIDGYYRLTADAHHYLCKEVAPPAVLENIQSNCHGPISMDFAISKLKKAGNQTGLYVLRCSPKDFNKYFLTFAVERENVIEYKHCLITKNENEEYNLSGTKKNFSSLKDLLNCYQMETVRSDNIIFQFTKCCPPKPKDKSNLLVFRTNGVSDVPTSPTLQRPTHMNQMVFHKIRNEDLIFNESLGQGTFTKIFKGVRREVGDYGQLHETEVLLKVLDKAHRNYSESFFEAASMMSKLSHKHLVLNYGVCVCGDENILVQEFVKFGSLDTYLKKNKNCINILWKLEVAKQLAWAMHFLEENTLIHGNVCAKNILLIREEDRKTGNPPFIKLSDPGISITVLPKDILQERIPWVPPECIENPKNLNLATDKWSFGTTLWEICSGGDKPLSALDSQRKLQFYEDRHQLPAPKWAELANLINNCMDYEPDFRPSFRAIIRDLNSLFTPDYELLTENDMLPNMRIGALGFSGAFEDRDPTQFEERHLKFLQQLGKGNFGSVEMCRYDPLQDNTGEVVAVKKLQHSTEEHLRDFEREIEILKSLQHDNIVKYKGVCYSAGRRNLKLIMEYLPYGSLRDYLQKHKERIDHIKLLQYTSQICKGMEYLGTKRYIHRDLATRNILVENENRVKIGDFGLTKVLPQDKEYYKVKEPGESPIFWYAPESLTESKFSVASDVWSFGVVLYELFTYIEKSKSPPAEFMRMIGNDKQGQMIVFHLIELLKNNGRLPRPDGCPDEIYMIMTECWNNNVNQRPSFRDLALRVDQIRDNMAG
Procedure: JAK2 Assay 384-well plates in the left foot butoxy measured progress. The final assay volume was 25 μL, 250 nL 100× compounds, 10 μL enzyme mix and 15 μL substrate mix (fluoresceinated peptide and ATP) in assay buffer (50 mM HEPES (pH 7.5), 10 mM MgCl2, 0.01% TritonX-100, 0.01% Brij35, 0.5 mM EGTA and 2 mM DTT) prepared as test compound By mixing the JAK2 with substrates and test compounds to start the reaction. The reaction mixture was incubated for 15 minutes at room temperature, then added 30 μL stop buffer for each sample to terminate the reaction with 50 mM EDTA. After termination of the kinase reaction, the proportion of phosphorylated product was determined as a fraction of total peptide substrate using Caliper EZ Reader 1 Inhibition data were calculated by comparison with 100% of the reaction mixture without enzyme inhibition and vehicle-only reaction mixture billion % inhibition compared. The final concentration of reagents in the assays is: ATP, 11.4 μM; JAK2 fluorescent peptide (5-FAM-EEPLYWSFPAKKK-CONH2), 3 μM; JAK2, 0.25 nM; and DMSO, 1%. Dose response curve were generated to determine the concentration required for IC50 of JAK2 activity.

Row | IC50 [1] [nM] | IC50 [2] [nM] | IC50 [3] [nM] | Structure (SMILES)
1 | 1000 to 10000 | 100 to 1000 | 1000 to 10000 | CN(c1ncnc2[nH]ccc12)C1CC2(C1)CN(C(=O)Cc1c[nH]c3ccccc13)C2 [Compound 23, 2-(1H-indol-3-yl)-1-(6-(methyl(7H-pyrrolo[2,3-d]pyrimidin-4-yl)amino)-2-azaspiro[3.3]heptan-2-yl)ethanone]
2 | 1000 to 10000 | 100 to 1000 | 100 to 1000 | CCC(=O)N1CCC2(CCC(N(C)c3ncnc4[nH]ccc34)CC2)CC1 [Compound 78, 1-{9-[Methyl-(7H-pyrrolo[2,3-d]pyrimidin-4-yl)-amino]-3-aza-spiro[5.5]undec-3-yl}-propan-1-one]
3 | 1000 to 10000 | 10 to 100 | 1000 to 10000 | CN(c1ncnc2[nH]ccc12)C1CC2(C1)CN(C(=O)c1cc3ccccc3s1)C2 [Compound 20, benzo[b]thiophen-2-yl(6-(methyl(7H-pyrrolo[2,3-d]pyrimidin-4-yl)amino)-2-azaspiro[3.3]heptan-2-yl)methanone]
4 | 1000 to 10000 | 100 to 1000 | 100 to 1000 | Cc1cncc(C(=O)N2CCC3(CCC(N(C)c4ncnc5[nH]ccc45)CC3)CC2)n1 [Compound 90, (6-Methyl-pyrazin-2-yl)-{9-[methyl-(7H-pyrrolo[2,3-d]pyrimidin-4-yl)-amino]-3-aza-spiro[5.5]undec-3-yl}-methanone]
5 | 1000 to 10000 | 10 to 100 | 100 to 1000 | CN(c1ncnc2[nH]ccc12)C1CC2(C1)CN(C(=O)c1ccc(I)cc1)C2 [Compound 38, (4-iodophenyl)(6-(methyl(7H-pyrrolo[2,3-d]pyrimidin-4-yl)amino)-2-azaspiro[3.3]heptan-2-yl)methanone]
6 | 100 to 1000 | 10 to 100 | 10 to 100 | CN(c1ncnc2[nH]ccc12)C1CCC2(CC1)CCN(C(=O)CO)CC2 [Compound 77, 2-Hydroxy-1-{9-[methyl-(7H-pyrrolo[2,3-d]pyrimidin-4-yl)-amino]-3-aza-spiro[5.5]undec-3-yl}-ethanone]
7 | 1000 to 10000 | 100 to 1000 | 100 to 1000 | CN(c1ncnc2[nH]ccc12)C1CCC2(CC1)CCN(C(=O)C1(C#N)CC1)CC2 [Compound 89, 1-{9-[Methyl-(7H-pyrrolo[2,3-d]pyrimidin-4-yl)-amino]-3-aza-spiro[5.5]undecane-3-carbonyl}-cyclopropanecarbonitrile]
8 | ≥ 10000 | 1000 to 10000 | 1000 to 10000 | CN(c1ncnc2[nH]ccc12)C1CC2(C1)CN(C(=O)c1cc[nH]n1)C2 [Compound 45, (6-(methyl(7H-pyrrolo[2,3-d]pyrimidin-4-yl)amino)-2-azaspiro[3.3]heptan-2-yl)(1H-pyrazol-3-yl)methanone]
9 | 1000 to 10000 | 10 to 100 | 1000 to 10000 | C#Cc1ccc(C(=O)N2CC3(CC(N(C)c4ncnc5[nH]ccc45)C3)C2)nc1 [Compound 48, (5-ethynylpyridin-2-yl)(6-(methyl(7H-pyrrolo[2,3-d]pyrimidin-4-yl)amino)-2-azaspiro[3.3]heptan-2-yl)methanon]
10 | 1000 to 10000 | 100 to 1000 | 1000 to 10000 | CN(c1ncnc2[nH]ccc12)C1CC2(C1)CN(C(=O)c1cccc(C(F)(F)F)c1)C2 [Compound 13, (6-(methyl(7H-pyrrolo[2,3-d]pyrimidin-4-yl)amino)-2-azasprio[3.3]heptan-2-yl)(3-(trifluoromethyl)phenyl)methanone]
11 | 1000 to 10000 | 100 to 1000 | 100 to 1000 | CN(c1ncnc2[nH]ccc12)C1CCC2(CC1)CCN(C(=O)CCC(F)(F)F)CC2 [Compound 91, 4,4,4-Trifluoro-1-{9-[methyl-(7H-pyrrolo[2,3-d]pyrimidin-4-yl)-amino]-3-aza-spiro[5.5]undec-3-yl}-butan-1-one]
12 | ≥ 10000 | 100 to 1000 | 100 to 1000 | CC(=O)N1CC2(CC(N(C)c3ncnc4[nH]ccc34)C2)C1 [Compound 4, 1-(6-(methyl(7H-pyrrolo[2,3-d]pyrimidin-4-yl)amino)-2-azaspiro[3.3]heptan-2-yl)ethanone]
13 | ≥ 10000 | 100 to 1000 | 1000 to 10000 | CN(c1ncnc2[nH]ccc12)C1CC2(C1)CN(C(=O)c1cnccn1)C2 [Compound 18, (6-(methyl(7H-pyrrolo[2,3-d]pyrimidin-4-yl)amino)-2-azaspiro[3.3]heptan-2-yl)(pyrazin-2-yl)methanone]
14 | 100 to 1000 | 100 to 1000 | 100 to 1000 | CN(c1ncnc2[nH]ccc12)C1CCC2(CC1)CCN(C(=O)c1cc3ccccc3[nH]1)CC2 [Compound 95, (1H-Indol-2-yl)-{9-[methyl-(7H-pyrrolo[2,3-d]pyrimidin-4-yl)-amino]-3-aza-spiro[5.5]undec-3-yl}-methanone]
15 | 1000 to 10000 | 100 to 1000 | 1000 to 10000 | COC(=O)N1CC2(CC(N(C)c3ncnc4[nH]ccc34)C2)C1 [Compound 7, methyl 6-(methyl(7H-pyrrolo[2,3-d]pyrimidin-4-yl)amino)-2-azaspiro[3.3]heptan-2-carboxylate]
16 | 1000 to 10000 | 100 to 1000 | 100 to 1000 | CCCS(=O)(=O)N1CCC2(CCC(N(C)c3ncnc4c3CCN4)CC2)CC1 [Compound 96, (6,7-Dihydro-5H-pyrrolo[2,3-d]pyrimidin-4-yl)-methyl-[3-(propane-1-sulfonyl)-3-aza-spiro[5.5]undec-9-yl]-amine]
17 | 1000 to 10000 | ≤ 10 | 10 to 100 | C#Cc1ccc(C(=O)N2CC3(CC(N(C)c4ncnc5[nH]ccc45)C3)C2)c(F)c1 [Compound 41, (4-ethynyl-2-fluorophenyl)(6-(methyl(7H-pyrrolo[2,3-d]pyrimidin-4-yl)amino)-2-azaspiro[3.3]heptan-2-yl)methanone]
18 | 1000 to 10000 | ≤ 10 | 100 to 1000 | C#Cc1ccc(C(=O)N2CC3(CC(N(C)c4ncnc5[nH]ccc45)C3)C2)c(Cl)c1 [Compound 43, (2-chloro-4-ethynylphenyl)(6-(methyl(7H-pyrrolo[2,3-d]pyrimidin-4-yl)amino)-2-azaspiro[3.3]heptan-2-yl)methanone]
19 | 100 to 1000 | 100 to 1000 | 100 to 1000 | CN(c1ncnc2[nH]ccc12)C1CCC2(CC1)CCN(CC(F)(F)F)CC2 [Compound 79, Methyl-(7H-pyrrolo[2,3-d]pyrimidin-4-yl)-[3-(2,2,2-trifluoro-ethyl)-3-aza-spiro[5.5]undec-9-yl]-amine]
